Measured values: patent US11147796B2, “Agent for preventing or ameliorating hearing impairment” (Tohoku University, priority 2017, dated 2021)

Legend:
[1] = test system: wild-type male mice (C57BL/6) exposed to strong sound; assay: Hearing ability by ABR after strong acoustic exposure; format: in vivo, mouse; conditions: vs non-administration group
Procedure: (§1) Ndufs 4 KO mice (mutant mice due to the substitution of the second exon of the Ndufs 4 gene with Neo sandwiched between loxP sequences) were purchased from Jacson Laboratory. The genetic background of the mouse was C57BL/6, and 60 days old (body weight 10 to 13 g) was used. Compound #5 (1 mg/kg body weight/day) synthesized in Example 1 was orally administered to Ndufs 4 KO mice (administration group of Ndufs 4 KO mice, n=5), between 28 and 60 days of age, at 60 days of age, the hearing ability of the compound #5 administration group was evaluated by auditory brainstem response (ABR). As a control, the hearing ability of Nudfs 4 KO mice not received compound #5 (non-administration group of Ndufs 4 KO mice, n=4), wild type mice not received compound #5 (non-administration group of wild type mice, n=3) and Ndufs 4 hetero KO mice not received compound N #5 (non-administration group of Ndufs 4 hetero KO mice, n=4) was assessed by ABR at 60 days of age. In measuring the hearing ability, a mixture of ketamine (100 mg/kg body weight) and xylazine (20 mg/kg body weight) were anesthetized by intraperitoneal injection of mice. ABR was also analyzed using TDT System 3 workstation and BioSigRP software (Tucker-Davis Technologies). The averaging (1000 times) of the evoked response to the tone burst sound of each frequency (4, 8, 12, 16, and 32 kHz) was recorded. Stimuli sounds were presented at 5 dB intervals from each frequency, 100 dB SPL (Sound Pressure Level) to 10 dB SPL. The threshold value of ABR was set as the minimum sound pressure threshold value at which at least one waveform was confirmed with reproducibility.
Six male wild-type male mice (C57BL/6) were inoculated into each of three groups (non-administration group of wild type mice, administration (1) group of wild type mice and administration (10) group of wild type mice). Compound #5 (1 mg/kg body weight/day) was orally administered to the administration (1) group of wild type mice for 1 week, compound group #5 (10 mg/kg body weight/day) for 1 week. Compound #5 was not administered to the non-administration group of wild-type mice. After oral administration for 1 week, each group of mice was placed in a chamber for strong acoustic exposure in an awake state, and octave band noise of sound pressure level 100 dB SPL, 8 to 16 kHz was exposed for 2 hours. Noise was generated with a noise generator (SF-06, Random Noise Generator; manufactured by RION), then amplified with an amplifier (D-75A; manufactured by Crown), and the audio was filtered with an audio filter (Multifunction Filter; manufactured by NF Corporation). The frequency band was set and outputted by a speaker (2446H; manufactured by JBL) attached to the center of the ceiling in the chamber. The sound pressure level was measured and confirmed with a sound pressure measuring device (2250L; manufactured by Bruel & Kjar) for each experiment. Hearing power was evaluated by ABR according to the method described in item “6-1” of Example 6 before strong-acoustic exposure and 4 hours after exposure.

“m.1555A>G mutant” cells = assay: Cell survival level (MTT assay, Cell Counting Kit-8) of BSO-treated cells; format: cell-based, human; conditions: BSO 100 μM, 48 hours
Procedure: In the following Examples 2, 3, and 5, “m.1555A>G mutant” cells were obtained by skin reproductive to a patient having “m.1555A>G mutation” to obtain dermal fibroblasts, then 10% Primary culture was carried out in DMEM (low glucose) culture solution (manufactured by Nacalai Tesque, Inc) containing FBS (Fetal bovine serum) under the condition of 5% CO2/20% O2, at 37° C. and isolated. In the following Examples 4 and 5, the inner ear culture was carried out in DMEM (high glucose) culture medium containing 10% FBS (Fetal bovine serum) under the condition of 5% CO2/20% O2, at 37° C.
[1] […]
[2] […] Cell survival level was measured by MTT assay using Cell Counting Kit-8 (manufactured by Dojindo Laboratories). That is, 100 μL of Cell Count Reagent SF was added to each well, incubated for 2 hours, and after 3 seconds of stirring with a microplate reader, the absorbance was measured at 450 nm (reference 750 nm). In addition, the level of cytotoxicity was detected by measuring lactate dehydrogenase (LDH) activity released extracellularly using Cytotoxicity LDH Assay Kit-WST (manufactured by Dojindo Laboratories). That is, 100 μL each of Working Solution prepared in each well was added, incubated for 30 minutes, Stop Solution was added in 50 μL each, and after stirring for 3 seconds with a microplate reader, the absorbance was measured at 490 nm (reference 750 nm).

Ndufs 4 KO mice = assay: Hearing ability by auditory brainstem response (ABR) in Ndufs 4 KO mice; format: in vivo, mouse; conditions: vs non-administration KO
Procedure: as §1, with “The threshold value of ABR was set as the minimum sound pressure threshold value at which at least one waveform was confirmed with reproducibility.” left out
Using Ndufs 4 KO mice and their littermate wild type mice (littermate wild type mice), the hearing power of littermate wild type mice not received compound #5 (non-administration group of wild-type mice, n=5), Ndufs 4 KO mice not received compound #5 (non-administration group of Ndufs 4 KO mice, n=5) and Ndufs 4 KO mice received compound #5 (administration group of Ndufs 4 KO mice, n=5) were evaluated by ABR at 28 days of age and 60 days of age according to the method described in the item “6-1” of Example 6. […]

[2] = test system: skin cells derived from hearing loss patients attributable to other inherited diseases; assay: Amount of ATP production in skin cells of patients with other inherited diseases; format: cell-based, human; conditions: POU4F3 gene mutation, MELAS [m.3243A>G mutation], Alport syndrome
[3] = 1 mg/kg body weight/day oral for 1 week
[4] = 10 mg/kg body weight/day oral for 1 week

O=C(CC(C(=O)O)c1c[nH]c2ccccc12)c1ccc(F)cc1F (centres unmarked) [compound #5, 4-(2,4-Difluorophenyl)-2-(1H-indol-3-yl)-4-oxo-butanoic Acid]
ABR threshold change before and after strong acoustic exposure [1, 3]: decreased
ABR threshold value after 4 hours of strong acoustic exposure [1, 3]: lower
ABR threshold change before and after strong acoustic exposure [1, 4]: decreased
ABR threshold value after 4 hours of strong acoustic exposure [1, 4]: lower
ABR threshold values before strong acoustic exposure ([1]; 1 and 10 mg/kg body weight/day oral for 1 week): no difference
decrease in cell survival level (“m.1555A>G mutant” cells; compound 10 μM): significantly suppressed
decrease in cell survival level (“m.1555A>G mutant” cells; compound at least 1 μM): inhibited
ABR threshold (Ndufs 4 KO mice; Example 6, 1 mg/kg body weight/day oral, 28 to 60 days of age, measured at 60 days): lower than the ABR threshold in the non-administration group of Ndufs 4 KO mice
ABR threshold value (Ndufs 4 KO mice; Example 7, 1 mg/kg body weight/day oral, at 60 days of age): decreased
ABR threshold (Ndufs 4 KO mice; Example 8, 0.3 mg/kg body weight/day oral): decreased
amount of ATP production [2]: confirmed
